Tests used:
[1] = molecular target: T1, DC-SIGN ECD M270F (Homo sapiens, UniProt Q9NNX6, M270F); assay: Plate-based horseradish peroxidase assay; type: binding
T1 construct: acids 64 -404 of DC -SIGN; made in house
T1 sequence (Q9NNX6 64-404 M270F): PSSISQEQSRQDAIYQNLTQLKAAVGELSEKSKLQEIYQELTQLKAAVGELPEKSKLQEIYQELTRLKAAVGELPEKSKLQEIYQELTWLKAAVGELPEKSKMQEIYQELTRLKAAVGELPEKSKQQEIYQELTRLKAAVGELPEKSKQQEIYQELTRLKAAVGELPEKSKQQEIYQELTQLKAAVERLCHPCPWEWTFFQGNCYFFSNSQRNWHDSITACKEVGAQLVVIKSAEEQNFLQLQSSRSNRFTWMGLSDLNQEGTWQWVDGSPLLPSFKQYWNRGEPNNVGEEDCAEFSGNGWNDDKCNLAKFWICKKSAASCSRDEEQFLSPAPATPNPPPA
Protocol: (§1) chromatography. Purified protein was dialyzed against 25 mM HEPES, 150 mM NaCl, 10 mM CaCl2, pH 7.4, concentrated using a centrifugal spin filter, snap frozen and then stored at -80°C. […]
(§2) Plate-based horseradish peroxidase assay
(§3) General remarks. Unless stated otherwise, all reagents and buffers were obtained from Sigma Aldrich or Carl Roth. Measurements were done on a Enspire Multimode Plate Reader (PerkinElmer). GraphPad Prism was used for all data processing and analysis.
(§4) CaCl2 titration. 100 µg mL-1 DC-SIGN ECD were immobilized in immobilization buffer (25 mM HEPES, 150 mM NaCl, 25 mM CaCl 2, pH 7.4) overnight at 4°C on transparent Nunc Maxisorp 96-well plates (Thermo Fisher). Protein solution was removed, and plates were washed three times with immobilization buffer and then blocked for 2 hours at 4°C with blocking buffer (25 mM HEPES, 150 mM NaCl, 25 mM CaCl 2, 2% BSA, 0.01% Tween -20). Plates were washed twice with 25 mM HEPES, 150 mM NaCl, 5 mM EDTA, pH 7.4 and twice with 25 mM HEPES, 150 mM NaCl, pH 7.4 to remove residual Ca 2+. To titrate Ca2+, CaCl2 in 25 mM HEPES, 150 mM NaCl, pH 7.4 was serially diluted on the plate at a constant HRP concentration of 1 µg mL-1 and then incubated at RT for 2 hours. Following incubation, plates were washed three times with 25 mM HEPES, 150 mM NaCl, pH 7.4 and bound HRP was detected using a TMB substrate kit (Thermo Fisher) and 0.18 M H2SO4 according to manufacturer’s instructions. Absorption was […]
(§5) HRP titration. Immobilization and blocking were done as described above. After blocking, plates were washed three times with immobilization buffer. HRP in immobilization buffer was serially diluted on the plate at a constant concentration CaCl2 concentration of 25 mM and then incubated […]
(§6) at RT for 2 hours. Following incubation, plates were washed three times with immobilization buffer and HRP was detected as described above.
(§7) Immobilization and blocking were done as described above. After blocking, plates were washed three times with immobilization buffer. Mannose in immobilization buffer containing 1 µg mL-1 HRP was serially diluted on the plate and then incubated at RT for 2 hours.
(§8) Following incubation, plates were washed three times with immobilization buffer and HRP was detected as described above.
(§9) All conditions were measured in technical triplicates, averaged and normalized to the control well […]
(§10) IC50 and EC50 values and hill […]
(§11) slopes (nH) were obtained in a four-parameter fit according to equation (1).
(§12) Y = bottom + top − bottom (1)
(§13) With bottom and top representing the minimal and maximal response plateaus, respectively, Y as the observed response and X the logarithmic concentration of the ligand . […]
(§14) Biosynth. Spectra were processed in TopSpin 4.2.0 and data analysis was performed using CCPN Analysis 3.2.0 for 2D spectra and in MestreNova for 1D spectra.2 Further analysis was done using GraphPad Prism and in-house python scripts.

[2] = molecular target: T2, DC-SIGN ECD wildtype (Homo sapiens, UniProt Q9NNX6); assay: Plate-based horseradish peroxidase assay; type: binding
T2 construct: acids 64 -404 of DC -SIGN; made in house
T2 sequence (Q9NNX6 64-404): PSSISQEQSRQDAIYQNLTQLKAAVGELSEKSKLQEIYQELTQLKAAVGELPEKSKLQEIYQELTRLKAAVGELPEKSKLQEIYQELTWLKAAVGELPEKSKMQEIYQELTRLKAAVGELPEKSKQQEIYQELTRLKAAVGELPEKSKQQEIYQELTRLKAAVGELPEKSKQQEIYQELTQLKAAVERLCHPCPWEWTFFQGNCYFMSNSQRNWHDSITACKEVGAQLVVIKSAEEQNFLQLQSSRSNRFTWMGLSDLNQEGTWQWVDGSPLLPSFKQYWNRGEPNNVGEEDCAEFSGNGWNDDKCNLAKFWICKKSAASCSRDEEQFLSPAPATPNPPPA
Protocol: as §1, §2, §3, §4, §5, §6, §7, §8, §9, §10, §11, §12, §13, §14

[3] = molecular target: T3, DC-SIGN ECD T314A (Homo sapiens, UniProt Q9NNX6, T314A); assay: Plate-based horseradish peroxidase assay; type: binding
T3 construct: acids 64 -404 of DC -SIGN; made in house
T3 sequence (Q9NNX6 64-404 T314A): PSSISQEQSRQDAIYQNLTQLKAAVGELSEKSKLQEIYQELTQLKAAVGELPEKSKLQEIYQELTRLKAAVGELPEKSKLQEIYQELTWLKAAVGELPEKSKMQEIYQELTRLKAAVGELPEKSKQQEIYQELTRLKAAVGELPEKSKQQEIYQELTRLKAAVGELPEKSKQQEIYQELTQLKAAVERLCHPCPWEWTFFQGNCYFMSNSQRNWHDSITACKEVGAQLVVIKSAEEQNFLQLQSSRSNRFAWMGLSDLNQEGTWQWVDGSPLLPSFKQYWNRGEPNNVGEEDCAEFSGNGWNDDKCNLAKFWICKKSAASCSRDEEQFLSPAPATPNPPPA

[4] = molecular target: T1, DC-SIGN ECD M270F; assay: 19F R2-filtered NMR reporter assay, CaCl2 titration; details: binding of 0.1 mM ManNAcF3 reporter, R2,obs
Protocol: (§15) 19F R2-filtered NMR reporter displacement assay. The 19F R2-filtered NMR reporter displacement assay was adjusted for CaCl2 titrations with DC-SIGN ECD as previously described.1 Apparent transverse relaxation rates R2,obs were obtained using the CPMG pulse sequence with a relaxation delay d1 of 2.0 s, acquisition time tacq of 0.8 s and a CPMG frequency νCPMG of 500 Hz.
(§16) DC-SIGN ECD was dialyzed four times against 25 mM HEPES, 150 mM NaCl (pH 7.4) to remove Ca2+ prior to measurements. Samples contained 25 μM DC-SIGN ECD in 25 mM HEPES, 150 mM NaCl (pH 7.4) supplemented with 10% D2O and 0.1 mM of the ManNAcF3 reporter molecule.
(§17) TFA at a concentration of 0.1 mM served as an internal reference. 512 scans were recorded to ensure sufficient signal to noise ratios. R2,obs values were obtained by fitting equation 5 to integrals I of the 19F resonance of the reporter at different relaxation times T with I0 as integral at T = 0 s. […]

[5] = molecular target: T2, DC-SIGN ECD wildtype; assay: as above; details: binding of 0.1 mM ManNAcF3 reporter, R2,obs
Protocol: as §15, §16, §17

[6] = molecular target: T3, DC-SIGN ECD T314A; assay: as above; details: binding of 0.1 mM ManNAcF3 reporter, R2,obs
Protocol: as §15, §16, §17

[7] = molecular target: T4, DC-SIGN CRD M270F (Homo sapiens, UniProt Q9NNX6, M270F); assay: 1H-15N HSQC NMR titration (CSP fitting); type: binding
T4 construct: acids 253-404 of DC-SIGN; His-tag (N); made in house
T4 sequence (Q9NNX6 253-404 M270F): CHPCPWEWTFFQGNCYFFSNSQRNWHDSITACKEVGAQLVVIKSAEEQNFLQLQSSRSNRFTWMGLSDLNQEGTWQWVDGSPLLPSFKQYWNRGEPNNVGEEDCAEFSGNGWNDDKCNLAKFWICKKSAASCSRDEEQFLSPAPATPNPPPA
Protocol: (§18) 1H-15N HSQC NMR. 1H-15N HSQC NMR spectra were collected with 256 increments in the nitrogen and 24 scans per increment and 2048 points in the direct dimension. The relaxation delay d1 was set to 1.0 s. The W5 WATERGATE pulse sequence was used for solvent suppression.3, 4 Experiments were performed at a CRD concentration of 200 μM in 20 mM MES, 40 mM NaCl, 10 mM CaCl2 (pH 6.0) supplemented with 10% D 2O and, if applicable, varying concentrations of ligands. Samples of apo DC -SIGN CRD were prepared as described for 1H-13C HSQC NMR experiments. A previously published resonance assignment of DC-SIGN CRD was transferred to the nearest neighbor in a reference spectrum recorded without ligand.5 Unassigned, overlapping or disappearing peaks were not assigned.
(§19) CSPs induced by mutations or ligands were calculated as previously described according to […]
(§20) The empirical weighing factor a was set to 0.15 for all calculations.
(§21) Dissociation constants (K Ds) were determined in titration experiments at five ligand concentratio ns […]
(§22) in the fast exchange regime were used for the fitting procedure via equation 4 in a global two - […]
(§23) with CSP max corresponding to the CSP values upon saturation and the bound protein fraction p b […]
(§24) CHESPA was performed as previously described .7 The chemical shift vector between apo and holo wildtype DC -SIGN CRD was used as reference perturbation to calculate the vector product to […]

[8] = molecular target: T5, DC-SIGN CRD T314A (Homo sapiens, UniProt Q9NNX6, T314A); assay: 1H-15N HSQC NMR titration (CSP fitting); type: binding; details: Lewis X titration, three concentrations, saturation not reached (estimated)
T5 construct: acids 253-404 of DC-SIGN; His-tag (N); made in house
T5 sequence (Q9NNX6 253-404 T314A): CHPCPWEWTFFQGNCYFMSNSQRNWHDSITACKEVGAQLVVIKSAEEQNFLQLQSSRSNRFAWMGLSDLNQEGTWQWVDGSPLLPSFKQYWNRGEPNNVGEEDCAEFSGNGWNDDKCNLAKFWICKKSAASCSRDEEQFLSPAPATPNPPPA
Protocol: as §18, §19, §20, §21, §22, §23, §24

[9] = molecular target: T6, DC-SIGN CRD wildtype (Homo sapiens, UniProt Q9NNX6); assay: 1H-15N HSQC NMR titration (CSP fitting); type: binding
T6 construct: acids 253-404 of DC-SIGN; His-tag (N); made in house
T6 sequence (Q9NNX6 253-404): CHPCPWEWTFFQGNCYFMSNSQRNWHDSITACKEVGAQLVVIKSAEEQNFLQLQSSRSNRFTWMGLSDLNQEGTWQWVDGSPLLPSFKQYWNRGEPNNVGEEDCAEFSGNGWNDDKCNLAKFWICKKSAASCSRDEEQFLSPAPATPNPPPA
Protocol: as §18, §19, §20, §21, §22, §23, §24

[10] = molecular target: the molecule itself; assay: dynamic light scattering; purified ECDs; tetrameric state judged from mannan affinity chromatography, DLS and DSF together
[11] = constant HRP concentration (1 µg mL-1), read-out: EC50 (mean ± SD), CaCl2 titration
[12] = Lewis X titration, three concentrations, saturation not reached (estimated)
[13] = HRP titration at saturating CaCl2
[14] = saturating CaCl2 (25 mM), plate-immobilized ECD

Molecule: [Ca+2].[Cl-].[Cl-] [CaCl2]
- EC50 [1, 11]: 700 ± 200 µM
- EC50 [2, 11]: 1000 ± 400 µM
- EC50 [3, 11]: 1200 ± 300 µM
- hill slope, CaCl2 titration [4]: 1.4
- EC50 ([4]; 25 μM ECD): 200 µM
- hill slope, CaCl2 titration [5]: 2.0
- EC50 ([5]; 25 μM ECD): 300 µM
- hill slope, CaCl2 titration [6]: 1.7
- EC50 ([6]; 25 μM ECD): 600 µM

Molecule: CC(=O)N[C@H]1C(O)O[C@H](CO)[C@@H](O[C@@H]2O[C@H](CO)[C@H](O)[C@H](O)[C@H]2O)[C@@H]1O[C@@H]1O[C@@H](C)[C@@H](O)[C@@H](O)[C@@H]1O (stereo partly drawn) [Lewis X, Lewis X trisaccharide]
- Kd [7, 12]: 600 ± 200 µM
- Kd [8]: 1400 ± 100 µM
- Kd [9, 12]: 1100 ± 200 µM

Molecule: Oc1ccccc1 [phenol]
- CSPs on addition of phenol ([7]; 20 mM phenol, holo CRD, compared with wildtype): drastically reduced CSPs
- CSPs on addition of phenol ([9]; 20 mM phenol, holo 15N-labeled CRD, residues of cryptic pocket and upper cavity): strong chemical shift perturbations

Molecule: horseradish peroxidase [HRP]
- increased affinity compared to the wildtype [1, 13]: 10 fold
- EC50 (mean ± SD), HRP titration [1, 14]: 0.2 ± 0.2 μg mL^–1
- EC50 (mean ± SD), HRP titration [2, 14]: 1.8 ± 1.0 µg/mL
- decreased affinity compared to the wildtype [3, 13]: 4 fold
- EC50 (mean ± SD), HRP titration [3, 14]: 8.6 ± 0.1 μg mL^–1

B1: DC-SIGN extracellular domain (ECD) M270F (receptor, UniProt Q9NNX6 59-404, looked up)
chain: QVSKVPSSISQEQSRQDAIYQNLTQLKAAVGELSEKSKLQEIYQELTQLKAAVGELPEKSKLQEIYQELTRLKAAVGELPEKSKLQEIYQELTWLKAAVGELPEKSKMQEIYQELTRLKAAVGELPEKSKQQEIYQELTRLKAAVGELPEKSKQQEIYQELTRLKAAVGELPEKSKQQEIYQELTQLKAAVERLCHPCPWEWTFFQGNCYFFSNSQRNWHDSITACKEVGAQLVVIKSAEEQNFLQLQSSRSNRFTWMGLSDLNQEGTWQWVDGSPLLPSFKQYWNRGEPNNVGEEDCAEFSGNGWNDDKCNLAKFWICKKSAASCSRDEEQFLSPAPATPNPPPA
notes: DC-SIGN (CD209), extracellular domain with the point mutation M270F
- stoichiometry N [10]: 4

B2: DC-SIGN extracellular domain (ECD) T314A (receptor, UniProt Q9NNX6 59-404, looked up)
chain: QVSKVPSSISQEQSRQDAIYQNLTQLKAAVGELSEKSKLQEIYQELTQLKAAVGELPEKSKLQEIYQELTRLKAAVGELPEKSKLQEIYQELTWLKAAVGELPEKSKMQEIYQELTRLKAAVGELPEKSKQQEIYQELTRLKAAVGELPEKSKQQEIYQELTRLKAAVGELPEKSKQQEIYQELTQLKAAVERLCHPCPWEWTFFQGNCYFMSNSQRNWHDSITACKEVGAQLVVIKSAEEQNFLQLQSSRSNRFAWMGLSDLNQEGTWQWVDGSPLLPSFKQYWNRGEPNNVGEEDCAEFSGNGWNDDKCNLAKFWICKKSAASCSRDEEQFLSPAPATPNPPPA
notes: DC-SIGN (CD209), extracellular domain with the point mutation T314A
- stoichiometry N [10]: 4

Reference: paper PMC12933331, “A Cryptic Pocket Allosterically Modulates Oligosaccharide Binding to DC-SIGN” (JACS Au, 2026)
